Among the data in ChEMBL document CHEMBL3817775, “Kinetic and Structural Insights into the Mechanism of Binding of Sulfonamides to Human Carbonic Anhydrase by Computational and Experimental Studies” (J Med Chem, 2016) are Kd values, retold here.

Assay [1] addresses T1, Carbonic anhydrase 2 (Homo sapiens, UniProt P00918). Nature of the assay: Binding affinity to GST-fused human carbonic anhydrase-2 expressed in Escherichia coli BL21 codon plus cells assessed as steady state dissociation constant by SPR method.
In assay [2] the target is T1, Carbonic anhydrase 2. Nature of the assay: Binding affinity to GST-fused human carbonic anhydrase-2 expressed in Escherichia coli BL21 codon plus cells assessed as dissociation constant by SPR method.

Molecules are shown by their SMILES.

Take `CCCc1ccc(S(N)(=O)=O)cc1`: the dissociation constant (Kd) on Carbonic anhydrase 2 [1] is 60.6 µM; on Carbonic anhydrase 2 [2], 57.8 µM.

Regarding `CCc1ccc(S(N)(=O)=O)cc1`, the Kd on Carbonic anhydrase 2 [1] was 125 µM; at Carbonic anhydrase 2 [2] it was 98.3 µM.
